Test results: ChEMBL document CHEMBL5365466, “Discovery of Triazolyl Derivatives of Cucurbitacin B Targeting IGF2BP1 against Non-Small Cell Lung Cancer” (J Med Chem, 2023)

Assays:
HCT-116 [1] = experiment: Antiproliferative activity against human HCT-116 cells assessed as cell growth inhibition at 1 uM incubated for 72 hrs by SRB assay; type: functional
HCT-116 [2] = experiment: Antiproliferative activity against human HCT-116 cells assessed as cell growth inhibition at 0.1 uM incubated for 72 hrs by SRB assay; type: functional
[3] = Antiproliferative activity against human L02 cells assessed as cell growth inhibition at 1 uM incubated for 72 hrs by SRB assay; type: toxicity, cell-based
[4] = Antiproliferative activity against human L02 cells assessed as cell growth inhibition at 0.1 uM incubated for 72 hrs by SRB assay; type: toxicity, cell-based

SMILES | inhibition at 1 µM (HCT-116 [1]) [%] | inhibition at 0.1 µM (HCT-116 [2]) [%] | inhibition at 72 h, 1 µM [3] [%] | inhibition at 72 h, 0.1 µM [4] [%]
CC(=O)OC(C)(C)/C=C/C(=O)[C@](C)(O)[C@H]1[C@H](O)C[C@@]2(C)[C@@H]3CC=C4[C@@H](C[C@H](OC(=O)c5cn(-c6ccc(Br)cc6)nn5)C(=O)C4(C)C)[C@]3(C)C(=O)C[C@]12C | 93 | 15.6 | 73.6 | 0.01
CC(=O)OC(C)(C)/C=C/C(=O)[C@](C)(O)[C@H]1[C@H](OC(=O)/C=C/c2ccc(F)cc2)C[C@@]2(C)[C@@H]3CC=C4[C@@H](C[C@H](O)C(=O)C4(C)C)[C@]3(C)C(=O)C[C@]12C | 1.19 | 5.23 | 67 | 7.68
CC(=O)OC(C)(C)/C=C/C(=O)[C@](C)(O)[C@H]1[C@H](OC(=O)/C=C/c2ccc(F)cc2)C[C@@]2(C)[C@@H]3CC=C4[C@@H](C[C@H](OC(=O)/C=C/c5ccc(F)cc5)C(=O)C4(C)C)[C@]3(C)C(=O)C[C@]12C | 7.98 | 2.07 | 6.72 | -13.1
COc1ccc(/C=C/C(=O)O[C@H]2C[C@@H]3C(=CC[C@@H]4[C@@]3(C)C(=O)C[C@]3(C)[C@@H]([C@@](C)(O)C(=O)/C=C/C(C)(C)OC(C)=O)[C@H](O)C[C@@]43C)C(C)(C)C2=O)cc1 | 79.4 | 5.28 | 67.3 | -9.08
CC(=O)OC(C)(C)/C=C/C(=O)[C@](C)(O)[C@H]1[C@H](OC(=O)/C=C/c2ccccc2)C[C@@]2(C)[C@@H]3CC=C4[C@@H](C[C@H](O)C(=O)C4(C)C)[C@]3(C)C(=O)C[C@]12C | 16.5 | 2.73 | 13.2 | 1.86
CC(=O)OC(C)(C)/C=C/C(=O)[C@](C)(O)[C@H]1[C@H](O)C[C@@]2(C)[C@@H]3CC=C4[C@@H](C[C@H](OC(=O)c5ccco5)C(=O)C4(C)C)[C@]3(C)C(=O)C[C@]12C | 83.5 | 22.1 | 69.2 | 20
CC(=O)OC(C)(C)/C=C/C(=O)[C@](C)(O)[C@H]1[C@H](O)C[C@@]2(C)[C@@H]3CC=C4[C@@H](C[C@H](OC(=O)/C=C/c5ccc(C)cc5)C(=O)C4(C)C)[C@]3(C)C(=O)C[C@]12C | 55.6 | 0.24 | 44.1 | 1.88
COc1ccc(/C=C/C(=O)O[C@H]2C[C@@H]3C(=CC[C@@H]4[C@@]3(C)C(=O)C[C@]3(C)[C@@H]([C@@](C)(O)C(=O)/C=C/C(C)(C)OC(C)=O)[C@H](OC(=O)/C=C/c5ccc(OC)cc5)C[C@@]43C)C(C)(C)C2=O)cc1 | 2.18 | 0.38 | 0.89 | -2.33
CC(=O)OC(C)(C)/C=C/C(=O)[C@](C)(O)[C@H]1[C@H](OC(=O)/C=C/c2ccc(C)cc2)C[C@@]2(C)[C@@H]3CC=C4[C@@H](C[C@H](OC(=O)/C=C/c5ccc(C)cc5)C(=O)C4(C)C)[C@]3(C)C(=O)C[C@]12C | 4.21 | 0.65 | 8.01 | -13.3
CC(=O)OC(C)(C)/C=C/C(=O)[C@](C)(O)[C@H]1[C@H](O)C[C@@]2(C)[C@@H]3CC=C4[C@@H](C[C@H](OC(=O)c5cn(-c6ccc(Cl)cc6)nn5)C(=O)C4(C)C)[C@]3(C)C(=O)C[C@]12C | 94 | 35.1 | 72.6 | 12.5
COc1ccc(-n2cc(C(=O)O[C@H]3C[C@@H]4C(=CC[C@@H]5[C@@]4(C)C(=O)C[C@]4(C)[C@@H]([C@@](C)(O)C(=O)/C=C/C(C)(C)OC(C)=O)[C@H](O)C[C@@]54C)C(C)(C)C3=O)nn2)cc1 | 92.1 | 49.4 | 73.1 | 12.6
CC(=O)OC(C)(C)/C=C/C(=O)[C@](C)(O)[C@H]1[C@H](O)C[C@@]2(C)[C@@H]3CC=C4[C@@H](C[C@H](OC(=O)/C=C/c5ccccc5)C(=O)C4(C)C)[C@]3(C)C(=O)C[C@]12C | 86.8 | 1.46 | 72.7 | 1.72
CC(=O)OC(C)(C)/C=C/C(=O)[C@](C)(O)[C@H]1[C@H](O)C[C@@]2(C)[C@@H]3CC=C4[C@@H](C[C@H](OC(=O)c5cccnc5)C(=O)C4(C)C)[C@]3(C)C(=O)C[C@]12C | 82.4 | 19.9 | 68.3 | 10.1
CC(=O)OC(C)(C)/C=C/C(=O)[C@](C)(O)[C@H]1[C@H](OC(=O)/C=C/c2ccc(C)cc2)C[C@@]2(C)[C@@H]3CC=C4[C@@H](C[C@H](O)C(=O)C4(C)C)[C@]3(C)C(=O)C[C@]12C | 4.99 | 5.73 | 7.53 | 3.35
CC(=O)OC(C)(C)/C=C/C(=O)[C@](C)(O)[C@H]1[C@H](O)C[C@@]2(C)[C@@H]3CC=C4[C@@H](C[C@H](OC(=O)/C=C/c5ccc(F)cc5)C(=O)C4(C)C)[C@]3(C)C(=O)C[C@]12C | 87.6 | 1.53 | 1.62 | -3.78
CC(=O)OC(C)(C)/C=C/C(=O)[C@](C)(O)[C@H]1[C@H](O)C[C@@]2(C)[C@@H]3CC=C4[C@@H](C[C@H](OC(=O)c5cccs5)C(=O)C4(C)C)[C@]3(C)C(=O)C[C@]12C | 95.2 | 3.99 | 75.2 | 4.77
CC(=O)OC(C)(C)/C=C/C(=O)[C@](C)(O)[C@H]1[C@H](O)C[C@@]2(C)[C@@H]3CC=C4[C@@H](C[C@H](OC(=O)c5cn(-c6ccc(C)cc6)nn5)C(=O)C4(C)C)[C@]3(C)C(=O)C[C@]12C | 88.1 | 27.9 | 72.4 | 3.68
COc1ccc(/C=C/C(=O)O[C@@H]2C[C@@]3(C)[C@@H]4CC=C5[C@@H](C[C@H](O)C(=O)C5(C)C)[C@]4(C)C(=O)C[C@]3(C)[C@H]2[C@@](C)(O)C(=O)/C=C/C(C)(C)OC(C)=O)cc1 | 67.3 | 0.47 | 47.4 | -3.17
CC(=O)OC(C)(C)/C=C/C(=O)[C@](C)(O)[C@H]1[C@H](OC(=O)/C=C/c2ccccc2)C[C@@]2(C)[C@@H]3CC=C4[C@@H](C[C@H](OC(=O)/C=C/c5ccccc5)C(=O)C4(C)C)[C@]3(C)C(=O)C[C@]12C | 9.26 | 3.56 | 11.7 | 0.97
